Assay [1] relates to HCC1954 cells (with PI3Kα H1047R mutation). Put plainly: In vitro inhibition of HCC1954 cell proliferation (CellTiter-Lumi). Type of assay: cell-based. As for the experimental part: Assay for In Vitro Inhibition of HCC1954 Cell Proliferation by Compounds of the Present Disclosure
The growth of the cells was evaluated, and the IC50 for the inhibition of cell growth by the compounds was calculated.

Assay [2] deals with MCF-7 cells (with PI3Kα E545K mutation). Put plainly: In vitro inhibition of MCF-7 cell proliferation (CellTiter-Lumi). The assay is classed as cell-based. The conditions noted are these: Homo sapiens, MCF7, 144 h. As for the experimental part: Biological Example 3. Assay for In Vitro Inhibition of MCF-7 Cell Proliferation by Compounds of the Present Disclosure
MCF-7 cells (with PI3Kα E545K mutation) were seeded into a 384-well plate (Fisher 142762) at 2000 cells per well. The next day, serially diluted compounds were added, and 144 h after the addition, CellTiter-Lumi (Beyotime C0068XL) was added to measure the ATP content in the cells. The growth of the cells was evaluated, and the IC50 for the inhibition of cell growth by the compounds was calculated.

[3] abbreviates: Homo sapiens, HCC1954, 144 h, HCC1954 cells, 144 h, CellTiter-Lumi, class symbols, read-out: Inhibitory activity against HCC1954 cells (IC50), class symbols.
Setting [4] is: class symbols, read-out: Inhibitory activity against MCF-7 cells (IC50), class symbols.
Setting [5] is: Homo sapiens, HCC1954, 144 h, HCC1954 cells, 144 h, CellTiter-Lumi, numeric values, read-out: Inhibitory activity against HCC1954 cells (IC50).
[6] abbreviates: numeric values, read-out: Inhibitory activity against MCF-7 cells (IC50).

Like-named read-outs stand apart in the source and are kept apart here. Where only a bound is given, the exact number is not on record here.

For the compound `CC(C)(C=C(C#N)C(=O)Nc1cnc(N2CC(N3CCN(c4ccc5c(c4)-c4nc(N6C(=O)OC[C@H]6C(F)F)cn4CCO5)CC3)C2)nc1)N1CCOCC1` [Compound 258], the concentration for half-maximal inhibition (IC50) in assay [1] (setting [3]) and in assay [2] (setting [4]) was below 50 nM in each case.
For the compound `CNC1(C=C(C#N)C(=O)Nc2cnc(N3CC(N4CCN(c5ccc6c(c5)-c5nc(N7C(=O)OC[C@H]7C(F)F)cn5CCO6)CC4)C3)nc2)CC1` [Compound 273], the IC50 in assay [1] (setting [3]) and in assay [2] (setting [4]) was below 50 nM throughout.
Turning to `N#CC(=CC1CC1)C(=O)Nc1ccc(N2CC(N3CCN(c4ccc5c(c4)-c4nc(N6C(=O)OC[C@H]6C(F)F)cn4CCO5)CC3)C2)nc1` [Compound 245], the IC50 in assay [1] (setting [3]) and in assay [2] (setting [4]) was below 50 nM throughout.
Take `N#CC(=CC1CCCN1)C(=O)Nc1cnc(N2CC(N3CCN(c4ccc5c(c4)-c4nc(N6C(=O)OC[C@H]6C(F)F)cn4CCO5)CC3)C2)nc1` (stereo partly shown) [Compound 270]: the half-maximal inhibitory concentration (IC50) in assay [1] (setting [3]) and in assay [2] (setting [4]) was below 50 nM throughout.
As to `C=CC(=O)Nc1ccc2c(c1)CCN2CCN1CCN(c2ccc3c(c2)-c2nc(N4C(=O)OC[C@H]4C(F)F)cn2CCO3)CC1` [Compound 205], the IC50 – broadly, the midpoint of a concentration-inhibition curve – in assay [1] (setting [3]) is 50 to 100 nM; in assay [2] (setting [4]), below 50 nM.
Take `C=CC(=O)N(C)c1ccc(N2CC(N3CCN(c4ccc5c(c4)-c4nc(N6C(=O)OC[C@H]6C(F)F)cn4CCO5)CC3)C2)cc1` [Compound 146]: the IC50 in assay [1] (setting [5]) worked out at 75 nM; in assay [2] (setting [6]) it was 6.6 nM.
In the case of `CC(C)C=C(C#N)C(=O)Nc1ccc(N2CC(N3CCN(c4ccc5c(c4)-c4nc(N6C(=O)OC[C@H]6C(F)F)cn4CCO5)CC3)C2)nc1` [Compound 244], the IC50 in assay [1] (setting [3]) and in assay [2] (setting [4]) was below 50 nM each time.
Take `CC(C)(O)C=C(C#N)C(=O)Nc1ccc(N2CC(N3CCN(c4ccc5c(c4)-c4nc(N6C(=O)OC[C@H]6C(F)F)cn4CCO5)CC3)C2)c(F)c1` [Compound 230]: the IC50 in assay [1] (setting [3]) and in assay [2] (setting [4]) was below 50 nM each time.
For `CN(C)C/C=C/C(=O)Nc1ccc(N2CC(N3CCN(c4ccc5c(c4)-c4nc(N6C(=O)OC[C@H]6C(F)F)cn4CCO5)CC3)C2)c(Cl)c1` [Compound 356], the half-maximal inhibitory concentration (IC50) in assay [1] (setting [3]) and in assay [2] (setting [4]) was below 50 nM in each case.
For `C=CC(=O)Nc1ccc(N2CCC(CN3CCN(c4ccc5c(c4)-c4nc(N6C(=O)OC[C@H]6C(F)F)cn4CCO5)CC3)CC2)cc1` [Compound 12], the IC50 in assay [1] (setting [5]) came out at 399 nM; in assay [2] (setting [6]), 49 nM.
In the case of `CC(C)(C=C(C#N)C(=O)Nc1ccc(N2CC(N3CCN(c4ccc5c(c4)-c4nc(N6C(=O)OC[C@H]6C(F)F)cn4CCO5)CC3)C2)cc1)NCOC(=O)C(C)(C)C` [Compound 329], the concentration for half-maximal inhibition (IC50) in assay [1] (setting [3]) and in assay [2] (setting [4]) was below 50 nM each time.
Regarding `CC(C)(C=C(C#N)C(=O)Nc1ccc(N2CC(N3CCN(c4ccc5c(c4)-c4nc(N6C(=O)OC[C@H]6C(F)F)cn4CCO5)CC3)C2)cc1)NCC1COC1` [Compound 381], the IC50 in assay [1] (setting [3]) and in assay [2] (setting [4]) was below 50 nM in each case.
Turning to `N#CC(=CC1(N)CC1)C(=O)Nc1ccc(N2CC(N3CCN(c4ccc5c(c4)-c4nc(N6C(=O)OC[C@H]6C(F)F)cn4CCO5)CC3)C2)c(F)c1` [Compound 235], the IC50 in assay [1] (setting [3]) and in assay [2] (setting [4]) was below 50 nM each time.
For `Cc1c(N2C(=O)OC[C@H]2C(F)F)nc2n1CCOc1ccc(N3CCN(C4CN(c5ccc(NC(=O)C(C#N)=CC(C)(C)C)cc5)C4)CC3)cc1-2` [Compound 323], the half-maximal inhibitory concentration (IC50) in assay [1] (setting [3]) and in assay [2] (setting [4]) was below 50 nM throughout.
`CC(C)(C=C(C#N)C(=O)Nc1ccc(N2CC(N3CCN(c4ccc5c(c4)-c4nc(N6C(=O)OC[C@H]6C(F)F)cn4CCO5)CC3)C2)cc1)N1CCC1` [Compound 171]: the concentration for half-maximal inhibition (IC50) in assay [1] (setting [5]) is 14 nM; in assay [2] (setting [6]), 4.5 nM.
Consider `CCC(C=C(C#N)C(=O)Nc1ccc(N2CC(N3CCN(c4ccc5c(c4)-c4nc(N6C(=O)OC[C@H]6C(F)F)cn4CCO5)CC3)C2)cc1)(CC)NC1COC1` [Compound 387], for which the IC50 in assay [1] (setting [3]) and in assay [2] (setting [4]) was below 50 nM each time.
Take `C=CC(=O)Nc1ccc(N2CC(N3CCN(c4ccc5c(c4)-c4nc(N6C(=O)SC[C@H]6C(F)F)cn4CCO5)CC3)C2)cc1` [Compound 106]: the values for the half-maximal inhibitory concentration (IC50) in assay [1] (setting [5]) and in assay [2] (setting [6]) were 6 nM and 0.14 nM, respectively.
For the compound `C=CC(=O)Nc1ccc(CCN2CCN(c3ccc4c(c3)-c3nc(N5C(=O)OC[C@H]5C(F)F)cn3CCO4)CC2)cc1` [Compound 16], the 50% inhibitory concentration (IC50) in assay [1] (setting [5]) came to 63 nM; in assay [2] (setting [6]) it was 7 nM.
In the case of `CC(C)(C)C=C(C#N)C(=O)Nc1ccc(N2CC(N3CCN(c4cc5c(cc4O)OCCn4cc(N6C(=O)OC[C@H]6C(F)F)nc4-5)CC3)C2)cc1` [Compound 317], the 50% inhibitory concentration (IC50) in assay [1] (setting [3]) and in assay [2] (setting [4]) was below 50 nM each time.
For `C=CC(=O)Nc1ccc(N2CC(C3CCN(c4ccc5c(c4)-c4nc(N6C(=O)OC[C@H]6C(F)F)cn4CCO5)CC3)C2)cc1` [Compound 130], the IC50 in assay [1] (setting [5]) was found to be 70 nM; in assay [2] (setting [6]), 14 nM.
On the same counts, the results for `CN(C)C/C=C/C(=O)Nc1ccc(N2CC(N3CCN(c4ccc5c(c4)-c4nc(N6C(=O)OC[C@H]6C(F)F)cn4CCO5)CC3)C2)cn1` [Compound 148] are 10 nM and 0.2 nM.
As to `C[C@H](Nc1ccc2c(c1)OCCn1cc(N3C(=O)OC[C@H]3C(F)F)nc1-2)C(N)=O` [GDC0077, GDC-0077, reference compound], the IC50 in assay [1] (HCC1954 cells, 144 h, CellTiter-Lumi, numeric values, read-out: Inhibitory activity against HCC1954 cells (IC50)) is 82 nM; in assay [2] (setting [6]) it was 55 nM.
Regarding `Cc1nc(-c2cn3c(n2)-c2cc(N4CCN(C5CN(c6ccc(NC(=O)C(C#N)=CC(C)(C)NC(=O)OC(C)(C)C)cc6Cl)C5)CC4)ccc2OCC3)n(C(C)C)n1` [Compound 373], the IC50 in assay [1] (setting [3]) and in assay [2] (setting [4]) was below 50 nM throughout.
Take `CN(C)C(C)(C)C=C(C#N)C(=O)Nc1ccc(N2CC(N3CCN(c4ccc5c(c4)-c4nc(N6C(=O)OC[C@H]6C(F)F)cn4CCO5)CC3)C2)cc1` [Compound 150]: the IC50 in assay [1] (setting [5]) was 121 nM; in assay [2] (setting [6]), 35 nM.
With `CNC(C)(C)C=C(C#N)C(=O)Nc1ccc(N2CC(N3CCN(c4ccc5c(c4)-c4nc(-c6nc(C)nn6C(C)C)cn4CCO5)CC3)C2)cc1` [Compound 337], the concentration for half-maximal inhibition (IC50) in assay [1] (setting [3]) and in assay [2] (setting [4]) was below 50 nM each time.
As to `CN(C1COC1)C(C)(C)C=C(C#N)C(=O)Nc1ncc(N2CC(N3CCN(c4ccc5c(c4)-c4nc(N6C(=O)OC[C@H]6C(F)F)cn4CCO5)CC3)C2)cn1` [Compound 292], the IC50 in assay [1] (setting [3]) and in assay [2] (setting [4]) was below 50 nM each time.
As for `CC(C)(C=C(C#N)C(=O)Nc1ccc(N2CC(N3CCN(c4ccc5c(c4)-c4nc(N6C(=O)OC[C@H]6C(F)F)cn4CCO5)CC3)C2)c(F)c1)NC1COC1` [Compound 221], the 50% inhibitory concentration (IC50) in assay [1] (setting [3]) and in assay [2] (setting [4]) was below 50 nM each time.
Regarding `CC(C)(C=C(C#N)C(=O)Nc1ccc(N2CC(N3CCN(c4ccc5c(c4)-c4nc(N6C(=O)OC[C@H]6C(F)F)cn4CCO5)CC3)C2)nc1)NC1(C)COC1` [Compound 386], the IC50 in assay [1] (setting [3]) and in assay [2] (setting [4]) was below 50 nM throughout.
Consider `CN1CCN(C(C)(C)C=C(C#N)C(=O)Nc2ccc(N3CC(N4CCN(c5ccc6c(c5)-c5nc(N7C(=O)OC[C@H]7C(F)F)cn5CCO6)CC4)C3)cc2)CC1` [Compound 307], for which the IC50 in assay [1] (setting [3]) and in assay [2] (setting [4]) was below 50 nM in each case.
On to `CC(C)=CC(=O)CCCCC(=O)N1CC(N2CCN(c3ccc4c(c3)-c3nc(N5C(=O)OC[C@H]5C(F)F)cn3CCO4)CC2)C1` [Compound 157], for which the figures for the IC50 in assay [1] (setting [5]) and in assay [2] (setting [6]) were 228 nM and 24 nM, respectively.
Regarding `C=CC(=O)Nc1ccc(N2CC(N3CCN(c4ccc5c(c4)-c4nc(-c6nc(C)nn6C(C)C)cn4CCO5)CC3)C2)cc1` [Compound 111], the concentration for half-maximal inhibition (IC50) worked out at 2.5 nM in assay [1] (setting [5]) and 0.1 nM in assay [2] (setting [6]).
The matching figures for `C=CC(=O)N1CC[C@H](C(=O)NCC(=O)N2CCN(c3ccc4c(c3)-c3nc(N5C(=O)OC[C@H]5C(F)F)cn3CCO4)CC2)C1` [Compound 3]: 282 nM and 62 nM.
As for `COCCNC(C)(C)C=C(C#N)C(=O)Nc1cnc(N2CC(N3CCN(c4ccc5c(c4)-c4nc(N6C(=O)OC[C@H]6C(F)F)cn4CCO5)CC3)C2)nc1` [Compound 268], the concentration for half-maximal inhibition (IC50) in assay [1] (setting [3]) and in assay [2] (setting [4]) was below 50 nM throughout.
For `CCOP(=O)(OCC)OC(C)(C)C=C(C#N)C(=O)Nc1ccc(N2CC(N3CCN(c4ccc5c(c4)-c4nc(N6C(=O)OC[C@H]6C(F)F)cn4CCO5)CC3)C2)cc1` [Compound 342], the IC50 in assay [1] (Homo sapiens, HCC1954, 144 h, read-out: Inhibitory activity against HCC1954 cells (IC50), class symbols) was below 50 nM; in assay [2] (setting [4]), below 50 nM.
In the case of `C=CC(=O)N1CCC(CCC(=O)N2CCN(c3ccc4c(c3)-c3nc(N5C(=O)OC[C@H]5C(F)F)cn3CCO4)CC2)CC1` [Compound 7], the IC50 in assay [1] (setting [5]) was determined as 925 nM; in assay [2] (setting [6]) it was 106 nM.
With `C=CC(=O)Nc1ccc(N2CC(N3CCN(c4ccc5c(c4)-c4nc(N6C(=O)OC[C@H]6C(F)F)cn4CCO5)CC3)C2)cc1OC(F)(F)F` [Compound 279], the IC50 in assay [1] (setting [5]) is 2.8 nM; in assay [2] (setting [6]), 0.1 nM.
Turning to `CNC(C)(C)C=C(C#N)C(=O)Nc1ncc(N2CC(N3CCN(c4ccc5c(c4)-c4nc(N6C(=O)OC[C@H]6C(F)F)cn4CCO5)CC3)C2)cn1` [Compound 300], the IC50 in assay [1] (setting [3]) and in assay [2] (setting [4]) was below 50 nM in each case.
Turning to `C=CC(=O)N1CCC(N2CCC(CN3CCN(c4ccc5c(c4)-c4nc(N6C(=O)OC[C@H]6C(F)F)cn4CCO5)CC3)CC2)CC1` [Compound 8], the IC50 in assay [1] (setting [5]) was above 1000 nM; in assay [2] (setting [6]), 63 nM.
